Assay [1] addresses T1, full-length recombinant human NEK7 (Homo sapiens, UniProt Q8TDX7).
T1 construct: full-length recombinant human NEK7; GST (N); purchased SignalChem NO9-10G; host or cells: Sf9 insect cells (baculovirus)
Kind of assay: NEK7 enzymatic assay. The following applies: recombinant human NEK7, casein substrate, radiolabelled ATP. The assay is classed as biochemical. The protocol:
Casein substrate (from bovine milk, hydrolyzed and partially dephosphorylated mixture of α, β and κ caseins, obtained from Sigma Aldrich, catalogue #C4765, diluted in distilled water to a final concentration of 1 mg/mL) and full-length recombinant human NEK7 (expressed by baculovirus in Sf9 insect cells using a N-terminal GST tag, obtained from SignalChem, catalogue #NO9-10G, 0.1 μg/μL) were mixed in assay buffer (20 mM Hepes pH 7.5, 10 mM MgCl2, 1 mM EGTA, 0.02% Brij35, 0.02 mg/ml BSA, 0.1 mM Na3VO4, 2 mM DTT, 1% DMSO). Compounds of interest (serial 3-fold dilution in DMSO from 10 μM to 0.5 nM) or vehicle (1% DMSO) were dispensed into the kinase reaction mixture by Acoustic technology (Echo550; nanoliter range). After incubation at room temperature for 20 minutes, the kinase reaction was initiated by addition of [^33P]-ATP (specific activity 10 μCi/μl) and the mixture was incubated at room temperature for 2 hours. The reaction was then stopped by spotting the reaction mixture on strips of phosphocellulose P81 paper. Following washing, the radioactivity of the P81 paper was measured and kinase activity data were expressed as the percent remaining kinase activity in test samples compared to vehicle reactions. IC50 values and curve fits were obtained using Prism (GraphPad Software).
Casein substrate (from bovine milk, hydrolyzed and partially dephosphorylated mixture of α, β and κ caseins, obtained from Sigma Aldrich, catalogue #C4765, diluted in distilled water to a final concentration of 1 mg/mL, assay concentration 20 μM) and full-length recombinant human Nek7 (expressed by baculovirus in Sf9 insect cells using a N-terminal GST tag, obtained from SignalChem, catalogue #NO9-10G, 0.1 μg/μL, assay concentration 70 nM) were mixed in assay buffer (20 mM Hepes pH 7.5, 10 mM MgCl2, 1 mM EGTA, 0.02% Brij35, 0.02 mg/ml BSA, 0.1 mM […], 2 mM DTT, 1% DMSO). Compounds of interest (in DMSO, serial 3-fold dilution from 10 μM to 0.5 nM) or control (1% DMSO) were dispensed into the kinase reaction mixture by Acoustic technology (Echo550; nanoliter range). After incubation at room temperature for 20 minutes, the kinase reaction was initiated by addition of [^32P]-ATP (Specific activity 10 μCi/μl) and the mixture was incubated at room temperature for 2 hours. The reaction was then stopped by spotting the reaction mixture on strips of phosphocellulose P81 paper. Following washing, the radioactivity of the P81 paper was measured and kinase activity data were expressed as the percent remaining kinase activity in test samples compared to vehicle (dimethyl sulfoxide) reactions. IC50 values and curve fits were obtained using Prism (GraphPad Software).

Assay [2] has as its system IL-1β release. Kind of assay: IL-1β release assay (THP-1 cells, PMA, LPS, nigericin). The assay is classed as cell-based. The following applies: Homo sapiens, LPS 250 ng/mL, nigericin 20 μM, cleaved IL-1β in media. The protocol: Approximately 1.5 million THP-1 cells were plated in each well of a 6-well TC plate and incubated with 40 nM PMA in RPMI (10% FBS, 1% Penstrep) for 24 hours. The media was then removed and cells were rested in RPMI (10% FBS, 1% Penstrep) for 24 hours after which time the media was removed and cells were pre-treated for 2 hours with various concentrations of compounds of interest (typically serial 3-fold dilution in RPMI+5% FBS, concentrations ranging from 1 μM to 0.5 nM) in RPMI (5% FBS). The media was again removed and cells were incubated with 250 ng/mL LPS and compounds of interest (concentrations as above) in RMPI (5% FBS) for 2 hours. The media was removed for a last time and cells were incubated with 20 μM nigericin and compounds of interest (concentrations as above) in Opti-MEM for 30 minutes. Cell media was then collected and the amount of cleaved IL-1β was determined using a JESS instrument (Protein Simple) and standard protocols. Cleaved Il-1β antibody was obtained from Cell Signaling (catalogue #83186S) and was used at 1:20 dilution in antibody diluent 2. Protein Simple 1× anti-Rabbit HRP secondary antibody was used along with Protein Simple luminol and peroxide for chemiluminescent detection. Primary antibody incubation time was increased from 30 minutes to 60 minutes.

Each structure is given as a SMILES string.

T1 sequence (Q8TDX7 whole entry): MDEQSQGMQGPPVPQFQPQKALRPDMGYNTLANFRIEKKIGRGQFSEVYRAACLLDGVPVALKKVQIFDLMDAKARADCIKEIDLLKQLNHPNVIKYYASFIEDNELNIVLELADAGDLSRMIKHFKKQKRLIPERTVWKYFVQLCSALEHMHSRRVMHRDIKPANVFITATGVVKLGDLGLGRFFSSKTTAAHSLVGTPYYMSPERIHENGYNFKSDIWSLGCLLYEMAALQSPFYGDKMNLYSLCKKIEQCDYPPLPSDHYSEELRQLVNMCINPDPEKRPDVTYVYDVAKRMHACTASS

On to `CS(=O)(=O)CCN1CCN(Cc2ccc(NC(=O)Nc3ccc(-c4cn(C5CC5)c5ncnc(N)c45)cc3F)cc2C(F)(F)F)CC1` [Example I-99, 1-(4-(4-amino-7-cyclopropyl-7H-pyrrolo[2,3-d]pyrimidin-5-yl)-2-fluorophenyl)-3-(4-((4-(2-(methylsulfonyl)ethyl)piperazin-1-yl)methyl)-3-(trifluoromethyl)phenyl)urea], for which the IC50 (as a rule, the midpoint of a concentration-inhibition curve) in assay [1] is less than 100 nM; in assay [2], 50 to 250 nM. `COCCn1nc(-c2ccc(NC(=O)Nc3ccc(CN4CCN(C)CC4)c(C(F)(F)F)c3)c(F)c2)c2c(N)ncnc21` [Example I-77, 1-(4-(4-amino-1-(2-methoxyethyl)-1H-pyrazolo[3,4-d]pyrimidin-3-yl)-2-fluorophenyl)-3-(4-((4-methylpiperazin-1-yl)methyl)-3-(trifluoromethyl)phenyl)urea]: the figures for the IC50 in assay [1] and in assay [2] were less than 100 nM and less than 50 nM, respectively. The corresponding values for `CN1CCN(Cc2ccc(NC(=O)Nc3ccc(-c4cn(C5CC5)c5ncnc(N)c45)cc3F)c(C(F)(F)F)c2)CC1` [Example I-16, 1-(4-(4-amino-7-cyclopropyl-7H-pyrrolo[2,3-d]pyrimidin-5-yl)-2-fluorophenyl)-3-(4-((4-methylpiperazin-1-yl)methyl)-2-(trifluoromethyl)phenyl)urea] are more than 2000 nM and more than 1000 nM. For `CN1CCC(Oc2ccc(NC(=O)Nc3ccc(-c4cn(C5CC5)c5ncnc(N)c45)cc3F)cc2C(F)(F)F)C(F)C1` (single isomer, unassigned) [Example I-90, 1-(4-(4-amino-7-cyclopropyl-7H-pyrrolo[2,3-d]pyrimidin-5-yl)-2-fluorophenyl)-3-(4-((3-fluoro-1-methylpiperidin-4-yl)oxy)-3-(trifluoromethyl)phenyl)urea] the same measures were less than 100 nM and less than 50 nM.

Turning to `Nc1ncnc2c1c(-c1ccc(NC(=O)Nc3ccc(CN4CCOCC4)c(C(F)(F)F)c3)c(F)c1)cn2C1CC1` [Example I-32, 1-(4-(4-amino-7-cyclopropyl-7H-pyrrolo[2,3-d]pyrimidin-5-yl)-2-fluorophenyl)-3-(4-(morpholinomethyl)-3-(trifluoromethyl)phenyl)urea], the IC50 in assay [2] lay in the range of 250 to 1000 nM.

On to `CN1CCN(c2ccc(NC(=O)Nc3ccc(-c4cn(C5CC5)c5ncnc(N)c45)cc3F)cc2C(F)(F)F)CC1` [Example I-3], for which, in assay [2], the IC50 lay in the range of 250 to 1000 nM. For the compound `CN1CCN(Cc2ccc(NC(=O)Nc3ccc(-c4nn(C5CC5)c5ccnc(N)c45)cn3)cc2C(F)(F)F)CC1` [Example I-51, 1-(5-(4-amino-1-cyclopropyl-1H-pyrazolo[4,3-c]pyridin-3-yl)pyridin-2-yl)-3-(4-((4-methylpiperazin-1-yl)methyl)-3-(trifluoromethyl)phenyl)urea], the IC50 in assay [2] lay within 50 to 250 nM. Still for that read-out and setting: to `CN1CCC(Oc2ncc(NC(=O)Nc3ccc(-c4cn(C5CC5)c5ncnc(N)c45)cc3F)cc2C(F)(F)F)CC1` [Example I-61, 1-(4-(4-amino-7-cyclopropyl-7H-pyrrolo[2,3-d]pyrimidin-5-yl)-2-fluorophenyl)-3-(6-((1-methylpiperidin-4-yl)oxy)-5-(trifluoromethyl)pyridin-3-yl)urea] belongs more than 1000 nM. As to `CNC1CCN(Cc2ccc(NC(=O)Nc3ccc(-c4cn(C5CC5)c5ncnc(N)c45)cc3F)cc2C(F)(F)F)CC1` [Example I-74, 1-(4-(4-amino-7-cyclopropyl-7H-pyrrolo[2,3-d]pyrimidin-5-yl)-2-fluorophenyl)-3-(4-((4-(methylamino)piperidin-1-yl)methyl)-3-(trifluoromethyl)phenyl)urea], the IC50 in assay [1] fell in the range of 100 to 500 nM. Regarding `CCN1CCN(Cc2ccc(NC(=O)Nc3ccc(-c4cn(C5CC5)c5ncnc(N)c45)cc3F)cc2C(F)(F)F)CC1` [Example I-41, 1-(4-(4-amino-7-cyclopropyl-7H-pyrrolo[2,3-d]pyrimidin-5-yl)-2-fluorophenyl)-3-(4-((4-ethylpiperazin-1-yl)methyl)-3-(trifluoromethyl)phenyl)urea], the IC50 in assay [1] was less than 100 nM. The same measure, in the same setting: as for `Nc1ncnc2c1c(-c1ccc(NC(=O)Nc3ccc(CN4CCC(O)CC4)c(C(F)(F)F)c3)c(F)c1)cn2C1CC1` [Example I-96, 1-(4-(4-amino-7-cyclopropyl-7H-pyrrolo[2,3-d]pyrimidin-5-yl)-2-fluorophenyl)-3-(4-((4-hydroxypiperidin-1-yl)methyl)-3-(trifluoromethyl)phenyl)urea], the figure is 100 to 500 nM; as for `Cc1cc(NC(=O)Nc2ccc(-c3nn(C(C)C)c4ncnc(N)c34)cc2)ccc1N1CCOCC1` [Example I-22, 1-(4-(4-amino-1-isopropyl-1H-pyrazolo[3,4-d]pyrimidin-3-yl)phenyl)-3-(3-methyl-4-morpholinophenyl)urea], 100 to 500 nM.

For `CCN1CCC(Oc2ccc(NC(=O)Nc3ccc(-c4cn(C5CC5)c5ncnc(N)c45)cc3F)cc2C(F)(F)F)CC1` [Example I-88, 1-(4-(4-amino-7-cyclopropyl-7H-pyrrolo[2,3-d]pyrimidin-5-yl)-2-fluorophenyl)-3-(4-((1-ethylpiperidin-4-yl)oxy)-3-(trifluoromethyl)phenyl)urea], the IC50 in assay [1] is less than 100 nM.

Turning to `CN1CCN(Cc2ccc(NC(=O)Nc3ccc(-c4cn(C5CC5)c5ncnc(N)c45)cc3F)cc2Cl)CC1` [Example I-37, 1-(4-(4-amino-7-cyclopropyl-7H-pyrrolo[2,3-d]pyrimidin-5-yl)-2-fluorophenyl)-3-(3-chloro-4-((4-methylpiperazin-1-yl)methyl)phenyl)urea], in assay [1], the IC50 was in the range of 100 to 500 nM. Still for that read-out and setting: as for `Nc1ncnc2c1c(-c1ccc(NC(=O)Nc3ccc(CN4CCN(S(=O)(=O)C5CC5)CC4)c(C(F)(F)F)c3)c(F)c1)cn2C1CC1` [Example I-97, 1-(4-(4-amino-7-cyclopropyl-7H-pyrrolo[2,3-d]pyrimidin-5-yl)-2-fluorophenyl)-3-(4-((4-(cyclopropylsulfonyl)piperazin-1-yl)methyl)-3-(trifluoromethyl)phenyl)urea], the figure is 500 to 2000 nM; as for `Nc1ncnc2c1c(-c1ccc(NC(=O)Nc3ccc(OC4CCN(C5COC5)CC4F)c(C(F)(F)F)c3)c(F)c1)cn2C1CC1` (single isomer, unassigned) [Example I-91, 1-(4-(4-amino-7-cyclopropyl-7H-pyrrolo[2,3-d]pyrimidin-5-yl)-2-fluorophenyl)-3-(4-((3-fluoro-1-(oxetan-3-yl)piperidin-4-yl)oxy)-3-(trifluoromethyl)phenyl)urea], 100 to 500 nM; as for `Nc1ncnc2c1c(-c1ccc(NC(=O)Nc3ccc(CN4CCOCC4)c(F)c3)c(F)c1)cn2C1CC1` [Example I-2, 1-(4-(4-amino-7-cyclopropyl-7H-pyrrolo[2,3-d]pyrimidin-5-yl)-2-fluorophenyl)-3-(3-fluoro-4-(morpholinomethyl)phenyl)urea], more than 2000 nM. The same measure, in the same setting: to `CN1CCN(Cc2ccc(NC(=O)Nc3ccc(-c4cn(C5CC5)c5ncnc(N)c45)cc3F)cc2C(F)(F)F)C2(CC2)C1` [Example I-8, 1-(4-(4-amino-7-cyclopropyl-7H-pyrrolo[2,3-d]pyrimidin-5-yl)-2-fluorophenyl)-3-(4-((7-methyl-4,7-diazaspiro[2.5]octan-4-yl)methyl)-3-(trifluoromethyl)phenyl)urea] belongs 100 to 500 nM.

Values taken from US20240317758A1 (Halia Therapeutics, Inc., priority 2021, published 2024).
